We go through one substance from US20010034328A1, “Treatment of male chronic pelvic pain syndrome” (priority 2000, published 2001).

The test system of data set [1] is male subjects having a clinical diagnosis of chronic pelvic pain syndrome. Nature of the data set: treatment of male subjects with chronic pelvic pain syndrome with 600-900 mg per day. The data set is classed as in vivo, human. Conditions: 600, 700, 800 or 900 mg per day orally, up to sixteen weeks or more. The procedure: Utilizing capsules prepared as above and 100 mg capsules available from ALZA Corporation as appropriate to meet the daily dosing requirements, male subjects having a clinical diagnosis of chronic pelvic pain syndrome are treated with 600, 700, 800 or 900 mg per day of pentosan polysulfate sodium for up to sixteen weeks, generally 1-2 weeks, 2-4 weeks, 4-8 weeks, 8-16 weeks or up to 32 weeks or more. The daily doses may be administered in multiple doses, generally three times per day with each dose containing equal amounts of pentosan polysulfate. As examples, the daily 600 mg dose may be administered as two 300 mg capsules of pentosan polysulfate as described herein in the morning and evening, or as three 200 mg doses (two 100 mg capsules) in the morning, at mid-day and in the evening. Typically, administration is in the non-fed mode with subjects receiving the doses either at least one hour before a meal or at least two hours after a meal. Daily 900 mg doses may be administered as three 300 mg capsules in the morning, at mid-day and in the evening. As with the 600 mg daily dose, administration typically is in the non-fed mode with subjects receiving the doses either at least one hour before a meal or at least two hours after a meal. […]

Data set [2] has as its system male subjects exhibiting signs and symptoms of Category III prostatitis. Conditions: 200 mg bid, cited from earlier work.
In data set [3] the test system is terminally ill cancer patients. The note with it: approximately 900-2100 mg/day for up to 8 months; twenty-one patients; cited from earlier work.
The conditions of data set [4]: cited from earlier work.

With pentosan polysulfate, the “relief of intensity and frequency of symptoms (pain, frequency and urgency of urination, nocturia, ejaculatory pain, impotence)” value in data set [1] was “can experience relief”. The median measurement score entry in data set [2] (after 3 months of treatment, compared with placebo) is “lowered to a greater extent than the placebo group”. In data set [2] (after 3 months of treatment), the “difference between the treatment group and the placebo group” value was “no evident difference”. Besides, in data set [2] (treatment group), the symptoms of myalgia/arthralgia result was “some improvement”. In data set [3], the “patients who experienced some degree of bleeding from the rectum or digestive tract” value is reported as “Twenty”. For the same substance, in data set [4], the oral bioavailability entry is “approximately 3%”.
